The text below walks through data of patent US20250066344A1 (BRISTOL-MYERS SQUIBB COMPANY, priority 2021, published 2025).

For orientation: EC50 means the concentration giving half of the maximal effect.

The experiment addresses T1, human RXFP1 (Homo sapiens, UniProt Q9HBX9).
T1 construct: expressed in transfected cells
T1 sequence (Q9HBX9 1-757): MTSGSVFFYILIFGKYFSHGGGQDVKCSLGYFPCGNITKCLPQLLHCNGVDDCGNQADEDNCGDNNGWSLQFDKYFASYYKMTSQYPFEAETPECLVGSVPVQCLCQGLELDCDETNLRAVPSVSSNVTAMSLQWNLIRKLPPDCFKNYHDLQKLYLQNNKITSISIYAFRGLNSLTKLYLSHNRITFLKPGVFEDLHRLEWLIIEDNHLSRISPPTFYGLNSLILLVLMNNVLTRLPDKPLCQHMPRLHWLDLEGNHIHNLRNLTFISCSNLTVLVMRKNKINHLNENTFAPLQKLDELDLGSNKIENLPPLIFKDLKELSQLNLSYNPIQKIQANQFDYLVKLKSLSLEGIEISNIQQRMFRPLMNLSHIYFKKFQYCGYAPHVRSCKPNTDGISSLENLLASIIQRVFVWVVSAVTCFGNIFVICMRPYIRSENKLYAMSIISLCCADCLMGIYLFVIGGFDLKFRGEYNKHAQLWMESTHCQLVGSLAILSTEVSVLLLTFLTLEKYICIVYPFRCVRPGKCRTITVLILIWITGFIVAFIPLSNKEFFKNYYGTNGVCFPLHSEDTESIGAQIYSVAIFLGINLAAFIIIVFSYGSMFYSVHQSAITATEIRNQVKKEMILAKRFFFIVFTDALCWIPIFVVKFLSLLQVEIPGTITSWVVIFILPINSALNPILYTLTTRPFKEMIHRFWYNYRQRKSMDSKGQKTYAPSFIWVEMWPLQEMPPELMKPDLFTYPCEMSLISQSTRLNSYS
Kind of experiment: RXFP1 cyclic adenosine monophosphate (cAMP) assay, hRXFP1 HEK293. It is filed as cell-based. To be noted: HEK293 cells stably expressing human RXFP1; 30 min at room temperature; HTRF cAMP. On the procedure: RXFP1 Cyclic Adenosine Monophosphate (cAMP) Assays. Human embryonic kidney cells 293 (HEK293) cells and HEK293 cells stably expressing human RXFP1, were cultured in MEM medium supplemented with 10% qualified FBS, and 300 μg/ml hygromycin (Life Technologies). Cells were dissociated and suspended in assay buffer. The assay buffer was HBSS buffer (with calcium and magnesium) containing 20 mM HEPES, 0.05% BSA, and 0.5 mM IBMX. Cells (3000 cells per well, except 1500 cell per well for HEK293 cells stably expressing human RXFP1) were added to 384-well Proxiplates (Perkin-Elmer). Cells were immediately treated with test compounds in DMSO (2% final) at final concentrations in the range of 0.010 nM to 50 μM. Cells were incubated for 30 min at room temperature. The level of intracellular cAMP was determined using the HTRF HiRange cAMP assay reagent kit (Cisbio) according to manufacturer's instructions. Solutions of cryptate conjugated anti-cAMP and d2 fluorophore-labelled cAMP were made in a supplied lysis buffer separately. Upon completion of the reaction, the cells were lysed with equal volume of the d2-cAMP solution and anti-cAMP solution. After a 1 h room temperature incubation, time-resolved fluorescence intensity was measured using the Envision (Perkin-Elmer) at 400 nm excitation and dual emission at 590 nm and 665 nm. A calibration curve was constructed with an external cAMP standard at concentrations ranging from 2.7 μM to 0.1 μM by plotting the fluorescent intensity ratio from 665 nm emission to the intensity from the 590 nm emission against cAMP concentrations. The potency and activity of a compound to […] cAMP production was then determined by fitting to a 4-parametric logistic equation from a plot of cAMP level versus compound concentrations.
The examples disclosed below were tested in the human RXFP1 (hRXFP) HEK293 cAMP assay described above and found to have agonist activity. Tables 1-3, lists EC50 values in the hRXFP1 HEK293 cAMP assay measured for the examples.
Table A lists EC50 values in the hRXFP1 HEK293 cAMP assay measured for the examples.
On the technique in general: Time-resolved FRET reads energy transfer from a long-lived donor to a nearby acceptor.
Compound `COc1ccc(C(=O)NCC2(S(C)(=O)=O)CC2)cc1C(=O)Nc1cc2c(cc1C(=O)Nc1ccc(F)c(C(F)(F)F)c1)OC(F)(F)O2` [Example 35, N3-(2,2-difluoro-6-((4-fluoro-3-(trifluoromethyl)phenyl)carbamoyl)benzo[d][1,3]dioxol-5-yl)-4-methoxy-N1-((1-(methylsulfonyl)cyclopropyl)methyl)isophthalamide] showed an EC50 of 6 nM.
On to `COc1ccc(C(=O)N2CCCC(CO)C2)cc1C(=O)Nc1cc2c(cc1C(=O)Nc1ccc(F)c(C(F)(F)F)c1)OC(F)(F)O2` (stereo not shown) [Example 37, 2,2-difluoro-N-(4-fluoro-3-(trifluoromethyl)phenyl)-6-(5-(3-(hydroxymethyl)piperidine-1-carbonyl)-2-methoxybenzamido) benzo[d][1,3]dioxole-5-carboxamide], for which the midpoint of the response, the EC50, lay at 56 nM.
The result for `COc1ccc(C2CCN(C(=O)C(C)(C)O)C2)cc1C(=O)Nc1cc2c(cc1C(=O)Nc1ccc(F)c(C(F)(F)F)c1)OC(F)(F)O2` (single isomer, unassigned) [Example 46, 2,2-difluoro-N-(4-fluoro-3-(trifluoromethyl)phenyl)-6-(5-(1-(2-hydroxy-2-methylpropanoyl)pyrrolidin-3-yl)-2-methoxybenzamido)benzo[d][1,3]dioxole-5-carboxamide] reads 49 nM; that for `COc1ccc(-c2cc(C(=O)Nc3cc[nH]n3)ccc2F)cc1C(=O)Nc1cc2c(cc1C(=O)Nc1ccc(F)c(C(F)(F)F)c1)OC(F)(F)O2` [Example 48], 196 nM; that for `COc1ccc(C2=NOC3COCC23)cc1C(=O)Nc1cc2nc(C)sc2cc1C(=O)NC1CCCC1` (stereo not shown) [Example 29, N-cyclopentyl-5-(2-methoxy-5-(3a,4,6,6a-tetrahydrofuro [3,4-d]isox-azol-3-yl)-benzamido)-2-methylbenzo [d]thiazole-6-carboxamide], 2700 nM.
The value for `COc1ccc(C(=O)N(C)CCS(C)(=O)=O)cc1C(=O)Nc1cc2c(cc1C(=O)Nc1ccc(F)c(C(F)(F)F)c1)OC(F)(F)O2` [Example 41] was 562 nM; that for `COc1ccc(-c2cnc3n2CCN(C2COC2)C3)cc1C(=O)Nc1cc2c(cc1C(=O)Nc1ccc(F)c(C(F)(F)F)c1)OC(F)(F)O2` [Example 81, 2,2-difluoro-N-(4-fluoro-3-(trifluoromethyl)phenyl)-6-(2-methoxy-5-(7-(oxetan-3-yl)-5,6,7,8-tetrahydroimidazo[1,2-a]pyrazin-3-yl)benzamido)benzo[d] [1,3]dioxole-5-carboxamide] was 282 nM; that for `COc1ccc(C2CCCN(CC(N)=O)CC2)cc1C(=O)Nc1cc2c(cc1C(=O)Nc1ccc(F)c(C(F)(F)F)c1)OC(F)(F)O2` (stereo not shown) [Example 96, 6-(5-(1-(2-amino-2-oxoethyl)azepan-4-yl)-2-methoxybenzamido)-2,2-difluoro-N-(4-fluoro-3-(trifluoromethyl)phenyl) benzo[d][1,3]dioxole-5-carboxamide] was 339 nM.
The result for `COc1ccc(-c2cc(C(=O)O)ccc2F)cc1C(=O)Nc1cc2c(cc1C(=O)Nc1ccc(F)c(C(F)(F)F)c1)OC(F)(F)O2` [Example 57, 3′-((2,2-difluoro-6-((4-fluoro-3-(trifluoromethyl)phenyl)carbamoyl)benzo[d][1,3]dioxol-5-yl)carbamoyl)-6-fluoro-4′-methoxy-[1,1′-biphenyl]-3-carboxylic acid] reads 125 nM; that for `COc1ccc(-c2nc3c(s2)CNCC3)cc1C(=O)Nc1cc2c(cc1C(=O)Nc1ccc(F)c(C(F)(F)F)c1)OC(F)(F)O2` [Example 52, 2,2-difluoro-N-(4-fluoro-3-(trifluoromethyl)phenyl)-6-(2-methoxy-5-(4,5,6,7-tetrahydrothiazolo[5,4-c]pyridin-2-yl)benzamido)benzo[d][1,3]dioxole-5-carboxamide], 683 nM.
Consider `COc1cc(F)c(C(=O)NCC2(S(C)(=O)=O)CC2)cc1C(=O)Nc1cc2c(cc1C(=O)Nc1ccc(F)c(C(F)(F)F)c1)OC(F)(F)O2` [Example 36, N1-(2,2-difluoro-6-((4-fluoro-3-(trifluoromethyl)phenyl)carbamoyl)benzo[d] [1,3]dioxol-5-yl)-4-fluoro-6-methoxy-N3-((1-(methylsulfonyl)cyclopropyl)methyl)iso-phthalamide], for which the EC50 came out at 14 nM.
The value for `COc1ccc(C2=NOC3CC(O)CC23)cc1C(=O)Nc1cc2nc(C)sc2cc1C(=O)Nc1ccc(F)c(C(F)(F)F)c1` (single isomer, unassigned) [Example 8, N-(4-fluoro-3-(trifluorometh-yl)phenyl)-5-(5-(5-hydroxy-3a,5,6,6a-tetra-hydro-4H-cyclopenta[d]isoxazol-3-yl)-2-methoxy-benzamido)-2-methylbenzo [d]thiazole-6-carboxamide] was 40 nM; that for `COc1ccc(C2=NOC(C(C)(C)O)C2)cc1C(=O)Nc1cc2nc(C)sc2cc1C(=O)Nc1ccc(F)c(C(F)(F)F)c1` (stereo not shown) [Example 11, N-(4-fluoro-3-(trifluorometh-yl)phenyl)-5-(5-(5-(2-hydroxypro-pan-2-yl)-4,5-dihydroisox-azol-3-yl)-2-methoxybenz-amido)-2-methylbenzo [d]thiazole-6-carboxamide] was 160 nM; that for `COc1ccc(-c2noc(C(C)(C)O)n2)cc1C(=O)Nc1cc2c(cc1C(=O)Nc1ccc(F)c(C(F)(F)F)c1)OC(F)(F)O2` [Example 84, 2,2-difluoro-N-(4-fluoro-3-(trifluoromethyl)phenyl)-6-(5-(5-(2-hydroxypropan-2-yl)-1,2,4-oxadiazol-3-yl)-2-methoxybenzamido) benzo[d][1,3]dioxole-5-carboxamide] was 485 nM.
In turn, `COc1ccc(C2CC3(C2)CN(C(=O)C(C)(C)O)C3)cc1C(=O)Nc1cc2c(cc1C(=O)Nc1ccc(F)c(C(F)(F)F)c1)OC(F)(F)O2` [Example 97, 2,2-difluoro-N-(4-fluoro-3-(trifluoromethyl)phenyl)-6-(5-(2-(2-hydroxy-2-methylpropanoyl)-2-azaspiro[3.3]heptan-6-yl)-2-methoxybenzamido) benzo[d][1,3]dioxole-5-carboxamide] gave an EC50 of 666 nM.
Regarding `COc1ccc(C2=NOC3CC(NC(=O)CO)CC23)cc1C(=O)Nc1cc2c(cc1C(=O)Nc1ccc(F)c(C(F)(F)F)c1)OC(F)(F)O2` (stereo not shown) [Example 51, 2,2-difluoro-N-(4-fluoro-3-(trifluoromethyl)phenyl)-6-(5-(5-(2-hydroxyacetamido)-3a,5,6,6a-tetrahydro-4H-cyclopenta[d]isoxazol-3-yl)-2-methoxybenzamido)benzo[d][1,3]dioxole-5-carboxamide], the EC50 was determined as 21 nM.
Take `COc1ccc(-c2cc(S(=O)(=O)NC(C)(C)C)ccc2F)cc1C(=O)Nc1cc2c(cc1C(=O)Nc1ccc(F)c(C(F)(F)F)c1)OC(F)(F)O2` [Example 64, 6-(5′-(N-(tert-butyl)sulfamoyl)-2′-fluoro-4-methoxy-{1,1′-biphenyl]-3-carboxamido)-2,2-difluoro-N-(4-fluoro-3-(trifluoromethyl)phenyl) benzo[d][1,3]dioxole-5-carboxamide]: a half-maximal response (EC50) required 37 nM.
In turn, `COc1cc(F)c(C2=NOC3CC(CO)CC23)cc1C(=O)Nc1cc2c(cc1C(=O)Nc1ccc(F)c(C(F)(F)F)c1)OC(F)(F)O2` (stereo not shown) [Example 102, 2,2-difluoro-N-(4-fluoro-3-(trifluoromethyl)phenyl)-6-(4-fluoro-5-(5-(hydroxymethyl)-3a,5,6,6a-tetrahydro-4H-cyclopenta[d]isoxazol-3-yl)-2-methoxybenzamido) benzo[d][1,3]dioxole-5-carboxamide] displayed an EC50 of 10.6 nM.
With `COc1ccc(C2=NOC3COCC23)cc1C(=O)Nc1cc2c(cc1C(=O)Nc1ccc(F)c(C(F)(F)F)c1)OC(F)(F)O2` (stereo not shown) [Example 79], a half-maximal effect (EC50) was put at 275 nM.
